These are literature values, as cited in patent publication US20050118266A1, “Sustained/controlled release solid formulation as a novel drug delivery system with reduced risk of dose dumping” (priority 2002, published 2005).

For this data set the following is noted: according to Biopharmaceutics Classification System.

As for `CC[C@H](C)C(=O)O[C@H]1C[C@H](O)C=C2C=C[C@H](C)[C@H](CC[C@@H](O)C[C@@H](O)CC(=O)O)[C@H]21` [pravastatin sodium], the “solubility (BCS category)” value is recorded as “highly soluble”.

In the case of `O=C(O)Cc1ccccc1Nc1c(Cl)cccc1Cl` [diclofenac sodium], the BCS class entry is “Class II” and the “solubility (BCS category)” value was “poorly soluble”.

Turning to `NCC1(CC(=O)O)CCCCC1` [gabapentin], the “solubility (BCS category)” value is reported as “highly soluble”.

As to `CNC(=C[N+](=O)[O-])NCCSCc1ccc(CN(C)C)o1` [ranitidine], the “solubility (BCS category)” value is “highly soluble”.

Take `Cc1cccc(Nc2ccncc2S(=O)(=O)NC(=O)NC(C)C)c1` [torasemide]: the BCS class entry is “Class I” and the “solubility (BCS category)” value is “highly soluble”.
